Results on seven molecules are retold here after patent US20190248834A1, “ENDOMORPHIN-2, TETRAPEPTIDE DERIVATIVES THEREOF, AND USES THEREOF” (priority 2016, published 2019).

Common to all, as to format: in vivo, human
In data set [1] the test system is osteoarthritis of the knees. The data set is described as follows: Example 94 (second): osteoarthritic knees, intra-articular injection of N-Bz hydrazide. The conditions noted are these: 0.08% (0.8 mg/ml) in water, 1 ml per knee intra-articular. On the procedure: A subject with osteoarthritis of the knees that progressively worsened over the years, evaluated the analgesic effectiveness of many topical preparations of tetrapeptide derivatives of the invention on numerous occasions. After such experiences they decided to self-inject […] knees with a sterile aqueous preparation of N-Bz-Tyr-Pro-Phe-Phe-NHNH2 (SEQ ID NO: 91) at a concentration of 0.08% (0.8 mg/ml) in water. Each knee was injected with 1 ml (0.8 mg) of the preparation via the sub-patellar route. […] The knees felt more comfortable than usual after 24 hours. The improvement from […] was judged to be more than 90% by clinical evaluation.

Data set [2] has as its system psoriatic arthritis, fingers and wrists. The data set is described as follows: Example 95: comparative analgesic efficacy on pain of psoriatic arthritis, topical. The following applies: for pain relief: 1% (w/v) in WEP442, topical to fingers and wrists. An excerpt: […] Treatment of the subject over the years included methotrexate and other antimetabolites, and in recent years, drugs known as biologic medications. While these agents provided intervals of relief, none provided lasting benefit. Over the past decade, painful arthritis developed in both hands and knees, and in numerous joints of the fingers. Three related tetrapeptide derivatives, 1% (w/v) in vehicle WEP442, were topically applied to the fingers and wrists of both hands one at a time. […] Analgesic efficacy was rated by the subject as 75%.

The test system of the next data set is headache. The data set is described as follows: Example 52: analgesic effect on headache. The following applies: two 500 mg tablets, oral. The text has this:
At 5:30 p.m., the headache pain was becoming more intense, at which time they topically applied a composition containing 1% (w/v) of N-Pg-Tyr-Pro-Phe-Phe-NH2 (SEQ ID NO: 44) in WEP442 to the entire forehead and temporal areas. […] There was no recurrence of symptoms over the next 3 days of follow-up time.

Data set [3] has as its system trapezius muscle strain pain. The data set is described as follows: Example 81: analgesic effect on pain from trapezius muscle strain, topical. The conditions noted are these: 0.7% (w/v) in propylene glycol: triethyl citrate : water (4:4:2). The text has this:
A subject with persistent pain localized to a site medial to the upper right scapula (shoulder blade) topically applied to that site a composition containing 0.7% (w/v) of N-Ac-Tyr-Pro-Phe-Phe-NHCH3(SEQ ID NO: 24) in propylene glycol: triethyl citrate : water (4:4:2 ratio).

Data set [4] concerns psoriatic arthritis of finger joints. The data set is described as follows: Example 84: analgesic effect on pain from psoriatic arthritis, topical. The conditions noted are these: 0.8% (w/v) in WEP442, topical. An excerpt:
A subject […], had extensive plaque psoriasis and painful arthritis of the interphalangeal joints of both index fingers, left thumb and left 5th finger, which compromised their work performance as an esthetician. The subject topically applied a solution composition containing 0.8% (w/v) of N-Ac-Tyr-Pro-Phe-Phe-NHCH3 (SEQ ID NO: 24) in WEP442 to their painful fingers.

Data set [5] concerns osteoarthritis of the fingers and wrists. The data set is described as follows: Example 83: analgesic effect on osteoarthritic pain, topical. The following applies: 0.8% (w/v) in WEP442, topical. On the procedure:
A subject had osteoarthritis of the fingers and wrists for about 10 years, with substantial worsening over the past several months. Symptoms included painful finger joints and wrists. The pain was much worsened by flexion, so that making a first was too painful to try. Moreover, complete flexion had not been possible because of actual physical limitations. Anatomical signs of their disorder, e.g., enlarged finger joints, were conspicuous in their case. After 36 hours of no topical or systemic use of any analgesic agent, pain in the fingers and wrists was again present and substantial, so much so that they were unable to slice vegetables with a knife.

The subject of another data set is lower back (lumbar) pain. As to the kind of experiment: Example 85: analgesic effect on lower back pain, topical. As for the experimental part:
A subject had lower back (lumbar) pain associated with sitting in a crouched position at a low work table for about 3 hours. Upon their sitting up straight, the pain became more pronounced and persisted as they walked around for 15-20 minutes.

For the next data set, the system named is post-sunburn pain. As to the kind of experiment: Example 86: analgesic effect on sunburn pain, topical. On the procedure: A subject, experienced post-sunburn pain at the frontal hairline of the scalp, an area not earlier covered by sunscreen lotion at time of sun exposure several days earlier. They vigorously rubbed the area later to remove lingering skin scales, which caused irritation and pain. […] Relief lasted for 4 hours. […] The condition was then resolved with the use of a hydrating skin cream.

Data set [6] concerns psoriatic arthritis of interphalangeal joints of the fingers. As to the kind of experiment: Example 93: multiple derivatives evaluated for relief of pain associated with psoriatic arthritis, topical. The following applies: 0.8% (w/v) in WEP442, topical to both hands. The text has this:
A subject with extensive plaque psoriasis and psoriatic arthritis of interphalangeal joints of the fingers evaluated multiple tetrapeptide derivatives for comparative effectiveness on relief of their painful fingers. Over the course of 4 weeks, this subject evaluated the analgesic efficacy of ten (10) endomorphin-2 tetrapeptide derivatives in WEP442 at a concentration of 0.8% (w/v) applied topically to both hands, which included all fingers.

In data set [7] the test system is periostitis of right upper tibia, osteoarthritis of left knee, left hip joint pain, lower back pain. The data set is described as follows: Example 87: pain relief at multiple sites in one subject, topical. An excerpt:
A caregiver subject, presented with (a) painful periostitis of the right upper tibia for about 3 months, (b) painful early osteoarthritis of the left knee for about 1 year, (c) painful left hip joint of about 6 months, and (d) lower back pain near the end of the work day for about 2 years.
Over the course of 16 days, this subject evaluated the analgesic efficacy of eight (8) endomorphin-2 tetrapeptide derivatives in WEP442 at a concentration of 0.8% (w/v) applied topically to the sites of pain.
The lower back pain returned toward the end of the following work day.
Relief of lower back pain lasted for 20-24 hours (4+ effect). […]
For the above same subject, the composition containing 0.8% (w/v) of N-Ac-Tyr-Pro-Phe-Phe-NHCH(CH3)2 (SEQ ID NO: 27) in WEP442 was topically applied to the right upper tibia, left knee and left hip.
For the above same subject, the composition containing 0.8% (w/v) of N-Fo-Tyr-Pro-Phe-Phe-NH2 (SEQ ID NO: 104) in WEP442 was topically applied to 3 sites. Relief of pain was variable. […] Relief of pain in the right upper tibia was complete in about 4 minutes, lasting for 12 hours.
For the above same subject, the composition containing 0.8% (w/v) of N-Bz-Tyr-Pro-Phe-Phe-NH2 (SEQ ID NO: 84) in WEP442 provided relief of pain within 2-4 minutes. On the left hip, the relief was complete, lasting for about 12 hours (4+ effect). On the left knee, relief was incomplete, about 50%, lasting for only about 3 hours (2+ effect). On the right upper tibia, relief was complete and lasted for about 12 hours (4+ effect).

For data set [8], the system named is severe osteoarthritis of both knees. As to the kind of experiment: Example 88: analgesic efficacy of eight derivatives on severe osteoarthritis, topical. The following applies: 1% (w/v) in WEP442, topical to the knees. On the procedure: A subject with severe osteoarthritis of both knees for a duration of about 7 years evaluated numerous tetrapeptide derivatives over the past years. […] Over the course of 3 weeks, this subject evaluated the analgesic efficacy of eight (8) endomorphin-2 tetrapeptide derivatives in WEP442 at a concentration of 1% (w/v) applied topically to the knees.
Reapplication at the end of that time again provided the same effect. Application at bedtime provided relief of pain for 7 hours. The same results were achieved the next day (3+ to 4+ effect).
A second application, about 15 minutes later, provided somewhat more relief (2+ effect).
Application at 9:30 p.m. provided relief until 5:30 a.m., and similar results were achieved the next day (3+ to 4+ effect).
No modification of pain in the right knee, which had received application of vehicle WEP442 as a control, was detected. Application of the composition containing the tetrapeptide derivative to the right knee about 15 minutes later provided prompt relief of pain. Pain relief in both knees lasted for about 5 hours (3+ to 4+ effect).
Relief lasted for about 3 hours. Re-application at that time provided the same degree of pain relief in about 5 minutes, which lasted about another 3 hours (2+ effect).
For the above same subject, the composition containing 1% (w/v) of N-Fo-Tyr-Pro-Phe-Phe-NH2 (SEQ ID NO: 104) in WEP442 was applied to the left knee, and the composition containing 1% (w/v) of N-Bz-Tyr-Pro-Phe-Phe-NH2 (SEQ ID NO: 84) in WEP442 was applied to the right knee moments later. Relief of pain in both knees seemed equivalent, was detectable in 5-7 minutes and lasted for about 4 hours. This procedure was repeated the next day with about the same results. The degree of pain relief from both solutions was rated as 3+ effect.

Data set [9] deals with psoriatic arthritis pain, fingers and wrists. The data set is described as follows: Example 48: comparative analgesic efficacy, psoriatic arthritis pain of fingers and wrists, topical. The conditions noted are these: 1% (w/v) in WEP442, topical. An excerpt: […] Treatment of the subject over the years included methotrexate and other antimetabolites, and in recent years drugs known as biologic medications. While these agents have provided intervals of relief, none has provided a lasting benefit. Over the past decade, painful arthritis developed in both wrists and in numerous joints of the fingers. Four related tetrapeptide derivatives, 1% (w/v) solution compositions in vehicle WEP442, one at a time, were topically applied to the fingers and wrists of both hands. […] Efficacy was rated by the subject as 4+. • (B) N-Ac-Tyr-Pro-Phe-Phe-NHNH2 (SEQ ID NO: 31) provided slow relief of pain, i.e. within about 10 minutes. […] Analgesic efficacy was judged by the subject to be 0 to 1+.

[10] abbreviates: 0.8% (w/v) in WEP442, right upper tibia.

Primed or numbered codes have the meaning given here. *: point of attachment. Bz′ = not defined here; NHPr = CCCN*; For = O=C*; NHOH = ON*

For `NNC(=O)[C@H](Cc1ccccc1)NC(=O)[C@H](Cc1ccccc1)NC(=O)[C@@H]1CCCN1C(=O)[C@H](Cc1ccc(O)cc1)NC(=O)c1ccccc1` [N-Bz-Tyr-Pro-Phe-Phe-NHNH2], in [1], the “discomfort from the injections” value is listed as “no discomfort from the injections”, the “duration of pain relief” value turned out to be 11 h, the “improvement by clinical evaluation” value is listed as “more than 90%” and the “pains in both knees” value was “gradually disappeared”. In addition, in [2] (1% (w/v) in WEP442, topical), the “analgesic efficacy rated by the subject” value was 100% and the “duration of pain relief” value is “about 24 hours”. Besides, the pain relief result in [2] is “rapid complete relief of pain”.

Consider `CC(=O)Nc1ccc(O)cc1` [acetaminophen, reference compound], for which the pain relief entry in the data set with headache is “slight relief of pain”.

Take “N-Ac-Tyr-Pro-Phe-Phe-NHCH2CH2CH3 (Ac-YPFF-NHPr; SMILES CCCNC(=O)[C@H](Cc1ccccc1)NC(=O)[C@H](Cc1ccccc1)NC(=O)[C@@H]1CCCN1C(=O)[C@H](Cc1ccc(O)cc1)NC(C)=O)”: in data set [2] (1% (w/v) in WEP442, topical), the “analgesic efficacy rated by the subject” value is recorded as 75%, the “duration of pain relief” value is “less than 6 hours” and the “time to pain relief” value is on record as “more than 5 minutes”. Also, the pain relief result in data set [2] was “slower relief of pain”.

For “N-Ac-Tyr-Pro-Phe-Phe-NHCH3 (Ac-YPFF-NHMe; SMILES CNC(=O)[C@H](Cc1ccccc1)NC(=O)[C@H](Cc1ccccc1)NC(=O)[C@@H]1CCCN1C(=O)[C@H](Cc1ccc(O)cc1)NC(C)=O)”, the “duration of pain relief” value in data set [3] was “about 4 hours”; in data set [4], “about 7 hours”; in data set [5], “about 17 hours”. Also, the pain relief result is on record as “Complete relief of pain” in data set [3]; “completely relieved” in [4]; “completely relieved all pain” in data set [5]; “complete resolution of all pain in the lower back” in the data set on lower back (lumbar) pain ((w/v) in WEP442, topical); “complete relief of pain” in the data set with post-sunburn pain (0.8% (w/v) in WEP442, several applications over the next 24 hours); “almost immediate relief of the painful discomfort” in the data set on post-sunburn pain (0.8% (w/v) in WEP442, topical). Further, the “time to pain relief” value is at most 2 min in [3]; 3 to 4 min in data set [4]; 5 to 7 min in data set [5]; at most 5 min with lower back (lumbar) pain (0/8% (w/v) in WEP442, topical). In the data set on lower back (lumbar) pain (0/8% (w/v) in WEP442, topical), the recurrence entry is “did not return”. Moreover, the duration of relief in the data set on post-sunburn pain (0.8% (w/v) in WEP442, topical) is 4 h.

Regarding “N-Bz-Tyr-Pro-Phe-Phe-NHOH ({Bz′}-YPFF-{NHOH})”, in data set [2] (1% (w/v) in WEP442, topical), the “analgesic efficacy rated by the subject” value was found to be 90% and the “duration of pain relief” value is given as “about 10 hours”. The pain relief entry in data set [2] is listed as “rapid complete relief of pain”.

In the case of “N-Fo-Tyr-Pro-Phe-Phe-NH2 (For-YPFF-NH2; SMILES NC(=O)[C@H](Cc1ccccc1)NC(=O)[C@H](Cc1ccccc1)NC(=O)[C@@H]1CCCN1C(=O)[C@H](Cc1ccc(O)cc1)NC=O)”, in data set [6], the “duration of pain relief” value is 2 to 3 h, the pain relief result is on record as “only minimal relief of pain” and the “time to pain relief” value was 5 to 6 min. In data set [7] (0.8% (w/v) in WEP442, left hip), the “time to pain relief, left hip” value is “about 5 minutes”. Besides, in [7] (0.8% (w/v) in WEP442, left knee), the “pain relief, left knee” value was “No relief of pain”. Further, the “duration of pain relief, right upper tibia” value in data set [7] (0.8% (w/v) in WEP442, periostitis of right upper tibia) was 12 h. In data set [7] (setting [10]), the “pain relief, right upper tibia” value is listed as “complete” and the “time to pain relief, right upper tibia” value is “about 4 minutes”. The “duration of pain relief” value in data set [8] is “about 4 hours”.

As to “N-Pg-Tyr-Pro-Trp-Phe-NH2 [reference compound]”, the pain relief result in data set [9] is “slow, minimal relief of pain”.
